The source made the active and inactive calls. The calls are words filed in the database; no cut-off is given here.
Columns and labels:
[1] = Tmax in ICR mouse at 10 mg/kg, ip measured upto 24 hrs by LC-MS/MS analysis; assay type: ADME, organism-based; conditions: in vivo
[2] = Acute toxicity in C57BL/6J mouse assessed as kidney damage at 50 mg/kg, ip measured upto 14 days H and E staining based analysis; assay type: organism-based; conditions: in vivo, 336 h, time < 14 day
Mus musculus [3] = assay: Anti-alzheimer activity against APP/PS1 mouse model assessed as upregulation of ATG16L1 mRNA expression in brain at 10 mg/kg, ip administered for 30 days; assay type: functional, organism-based; conditions: time 30.0 day
SH-SY5Y = assay: Cytotoxicity against human SH-SY5Y cells assessed as effect on cell viability at 10 uM incubated for 24 hrs; assay type: functional, cell-based
HeLa [4] = assay: Upregulation of OPTN mRNA expression in TFEB knockout human HeLa cells at 10 uM incubated for 24 hrs by qRT-PCR analysis; assay type: functional, cell-based
Mus musculus [5] = assay: Anti-alzheimer activity against APP/PS1 mouse model assessed as upregulation of p62 mRNA expression in brain at 10 mg/kg, ip administered for 30 days; assay type: functional, organism-based; conditions: time 30.0 day
HeLa [6] = assay: Upregulation of p62 mRNA expression in human HeLa cells at 10 uM incubated for 24 hrs by qRT-PCR analysis; assay type: functional, cell-based
[7] = Half life in ICR mouse at 10 mg/kg, ip measured upto 24 hrs by LC-MS/MS analysis; assay type: ADME, organism-based; conditions: in vivo
[8] = Ratio of drug concentration in ICR mouse brain to plasma at 10 mg/kg, ip measured upto 24 hrs by LC-MS/MS analysis; assay type: ADME, organism-based; conditions: brain and plasma, read-out: BPR
Mus musculus [9] = assay: Anti-alzheimer activity against APP/PS1 mouse model assessed as reduction in amyloid beta plaque in cortex at 10 mg/kg, ip administered for 30 days; assay type: functional; parameters: scale not given: the % may be the effect or the level left; conditions: time 30 day
Mus musculus [10] = assay: Anti-alzheimer activity against APP/PS1 mouse model assessed as increase in time spent in the target quadrant at 10 mg/kg, ip administered for 30 days by Morris water maze test; assay type: functional, organism-based; conditions: time 30.0 day
HeLa [11] = assay: Upregulation of OPTN mRNA expression in human HeLa cells at 10 uM incubated for 24 hrs by qRT-PCR analysis; assay type: functional, cell-based
[12] = Toxicity in APP/PS1 mouse model assessed as change in body weight at 10 mg/kg, ip administered every other day for 30 days; assay type: organism-based; conditions: in vivo, 720 h, time 30 day
HeLa [13] = assay: Upregulation of […] mRNA expression in human HeLa cells at 10 uM incubated for 24 hrs by qRT-PCR analysis; assay type: functional, cell-based
Mus musculus [14] = assay: Anti-alzheimer activity against APP/PS1 mouse model assessed as upregulation of CTSB mRNA expression in brain at 10 mg/kg, ip administered for 30 days; assay type: functional, organism-based; conditions: time 30.0 day
HeLa [15] = assay: Cytotoxicity against human HeLa cells assessed as effect on cell viability at 10 uM incubated for 24 hrs; assay type: functional, cell-based
HeLa [16] = assay: Upregulation of LC3B mRNA expression in TFEB knockout human HeLa cells at 10 uM incubated for 24 hrs by qRT-PCR analysis; assay type: functional, cell-based
HeLa [17] = assay: Upregulation of HEXA mRNA expression in TFEB knockout human HeLa cells at 10 uM incubated for 24 hrs by qRT-PCR analysis; assay type: functional, cell-based
HeLa [18] = assay: Upregulation of Atg16L1 mRNA expression in TFEB knockout human HeLa cells at 10 uM incubated for 24 hrs by qRT-PCR analysis; assay type: functional, cell-based
[19] = Cmax in ICR mouse at 20 mg/kg, po measured upto 24 hrs by LC-MS/MS analysis; assay type: ADME, organism-based; conditions: in vivo
[20] = Acute toxicity in C57BL/6J mouse assessed as heart damage at 50 mg/kg, ip measured upto 14 days H and E staining based analysis; assay type: organism-based; conditions: in vivo, 336 h, time < 14 day
[21] = test system: Primary neocortical neuron; assay: Cytotoxicity against mouse Primary neocortical neuron cells assessed as effect on cell viability at 10 uM incubated for 24 hrs; assay type: functional, cell-based
HeLa [22] = assay: Upregulation of GLA mRNA expression in TFEB knockout human HeLa cells at 10 uM incubated for 24 hrs by qRT-PCR analysis; assay type: functional, cell-based
[23] = Induction of TFEB nuclear translocation in human HeLa cells expressing EGFP at 10 uM measured at 6 hrs by fluorescence microscopic analysis; assay type: functional
Mus musculus [24] = assay: Anti-alzheimer activity against APP/PS1 mouse model assessed as reduction in time to locate hidden platform at 10 mg/kg, ip administered for 30 days by Morris water maze test; assay type: functional, organism-based; conditions: time 30.0 day
HeLa [25] = assay: Upregulation of p62 mRNA expression in TFEB knockout human HeLa cells at 10 uM incubated for 24 hrs by qRT-PCR analysis; assay type: functional, cell-based
[26] = Induction of TFEB nuclear translocation in human HeLa cells expressing EGFP at 10 uM measured at 3 hrs by fluorescence microscopic analysis; assay type: functional
Mus musculus [27] = assay: Anti-alzheimer activity against APP/PS1 mouse model assessed as upregulation of CTSF mRNA expression in brain at 10 mg/kg, ip administered for 30 days; assay type: functional, organism-based; conditions: time 30.0 day
[28] = AUC (0 to t) in ICR mouse at 5 mg/kg, iv measured upto 24 hrs by LC-MS/MS analysis; assay type: ADME, organism-based; conditions: in vivo
HeLa [29] = assay: Upregulation of ATG2A mRNA expression in TFEB knockout human HeLa cells at 10 uM incubated for 24 hrs by qRT-PCR analysis; assay type: functional, cell-based
Mus musculus [30] = assay: Anti-alzheimer activity against APP/PS1 mouse model assessed as upregulation of WIPL1 mRNA expression in brain at 10 mg/kg, ip administered for 30 days; assay type: functional, organism-based; conditions: time 30.0 day
HeLa [31] = assay: Induction of cell cycle arrest in human HeLa cells assessed as effect on CDK7 level at 10 uM incubated for 12 hrs by qRT-PCR analysis; assay type: functional, cell-based
HeLa [32] = assay: Induction of cell cycle arrest in human HeLa cells assessed as effect on p21 level at 10 uM incubated for 12 hrs by qRT-PCR analysis; assay type: functional, cell-based
[33] = Acute toxicity in C57BL/6J mouse assessed as brain damage at 50 mg/kg, ip measured upto 14 days by H and E staining based analysis; assay type: organism-based; conditions: in vivo, 336 h, time < 14 day
[34] = Oral bioavailability in ICR mouse at 20 mg/kg measured upto 24 hrs by LC-MS/MS analysis; assay type: ADME, organism-based; conditions: in vivo
Mus musculus [35] = assay: Anti-alzheimer activity against APP/PS1 mouse model assessed as reduction in amyloid beta 42 plaque in hippocampus at 10 mg/kg, ip administered for 30 days; assay type: functional; parameters: scale not given: the % may be the effect or the level left; conditions: time 30 day
[36] = Induction of TFEB nuclear translocation in human HeLa cells expressing EGFP at 30 uM measured at 6 hrs by fluorescence microscopic analysis; assay type: functional
HeLa [37] = assay: Upregulation of Atg16L1 mRNA expression in human HeLa cells at 10 uM incubated for 24 hrs by qRT-PCR analysis; assay type: functional, cell-based
HeLa [38] = assay: Upregulation of LAMP1 mRNA expression in TFEB knockout human HeLa cells at 10 uM incubated for 24 hrs by qRT-PCR analysis; assay type: functional, cell-based
Mus musculus [39] = assay: Anti-alzheimer activity against APP/PS1 mouse model assessed as reduction in amyloid beta 42 plaque in cortex at 10 mg/kg, ip administered for 30 days; assay type: functional; parameters: scale not given: the % may be the effect or the level left; conditions: time 30 day

Compound | Tmax [1] [min] | Activity [2] | Activity (Mus musculus [3]) | Activity (SH-SY5Y) | Activity (HeLa [4]) | Activity (Mus musculus [5]) | Activity (HeLa [6]) | half-life [7] [min] | Kp at 24 h [8] | Activity (Mus musculus [9]) [%] | Activity (Mus musculus [10]) | Activity (HeLa [11]) | Activity [12] | Activity (HeLa [13]) | Activity (Mus musculus [14]) | Activity (HeLa [15]) | Activity (HeLa [16]) | Activity (HeLa [17]) | Activity (HeLa [18]) | Cmax [19] [ng/mL] | further results
c1ccc2c(CCC3NCCc4cc5c(cc43)OCO5)c[nH]c2c1 (stereo not given) | 3 | Non-Toxic | Active | Active | Active | Active | Active | 123 | 1.1 | 26.5 | Active | Active | Non-Toxic | Active | Active | Active | Active | Active | Active | 4030 | Activity [20]: Non-Toxic; Activity [21]: Active; Activity (HeLa [22]): Active; Activity [23]: 51%; Activity (Mus musculus [24]): Active; Activity (HeLa [25]): Active; Activity [26]: 44%; Activity (Mus musculus [27]): Active; AUC(0-t) at 24 h ([28]; ICR): 3310 ng·h/mL; Activity (HeLa [29]): Active; Activity (Mus musculus [30]): Active; Activity (HeLa [31]): inactive; Activity (HeLa [32]): inactive; Activity [33]: Non-Toxic; bioavailability ([34]; ICR): 76.4%; Activity (Mus musculus [35]): 43.6%; Activity [36]: 98%; Activity (HeLa [37]): Active; Activity (HeLa [38]): Active; Activity (Mus musculus [39]): 47%
Fc1ccc2[nH]cc(CCC3c4cc5c(cc4CCN3CC3CCOCC3)OCO5)c2c1 (stereo not given) | 81 | Non-Toxic | Active | Active | Active | Active | Active | 70.2 | 5.2 | 29.5 | Active | Active | Non-Toxic | Active | Active | Active | Active | Active | Active | 9.49 | Activity [20]: Non-Toxic; Activity [21]: Active; Activity (HeLa [22]): Active; Activity [23]: 79%; Activity (Mus musculus [24]): Active; Activity (HeLa [25]): Active; Activity [26]: 72%; Activity (Mus musculus [27]): Active; AUCt ([28]; iv, 5 mg/kg, 24 h): 409 ng·h/mL; Activity (HeLa [29]): Active; Activity (Mus musculus [30]): Active; Activity (HeLa [31]): inactive; Activity (HeLa [32]): inactive; Activity [33]: Non-Toxic; F ([34]; po, 20 mg/kg, 24 h): 6.73%; Activity (Mus musculus [35]): 25.4%; Activity [36]: 98%; Activity (HeLa [37]): Active; Activity (HeLa [38]): Active; Activity (Mus musculus [39]): 36.3%

— ChEMBL document CHEMBL5506074, “Discovery and Optimization of Tetrahydroisoquinoline Derivatives To Enhance Lysosome Biogenesis as Preclinical Candidates for the Treatment of Alzheimer's Disease” (J Med Chem, 2024)
